These results are taken from PubChem BioAssay (NCI).

“And” between values parts separate entries of the source, which are not always exact repeats. Equal entries are not always repeated.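 Method: 48-hour compound exposure of cells in 96-well plates, five concentrations, linear interpolation of endpoints. GI50: concentration for 50% inhibition of growth. Definition used: TGI = concentration required for complete inhibition of growth.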

Common to all, as to assay: inhibition of tumour cell growth, NCI panel, 48 h
Test [1] relates to SK-MEL-5 melanoma.
Test [2] deals with 786-0 renal.
The test system of test [3] is NCI-H23 lung.
The subject of test [4] is SF-539 CNS.
The test system of test [5] is EKVX NSCLC.
Test [6] concerns U251 CNS.
For test [7], the system named is SNB-75 CNS.
The test system of test [8] is UO-31 renal.
Test [9] has as its system MDA-MB-435.
Test [10] deals with CCRF-CEM leukemia.

Turning to `O=c1c2ccccc2c(/C=N\NC2=NCCN2)c2oc3ccccc3n12`, the GI50 in test [1] is 21.3 µM; in test [2], 33.9 µM; in test [3] it was 15.7 µM; in test [4], 18.1 µM; in test [5], 16.5 µM; in test [6], 18.7 µM. In addition, the GI50 was 19.4 µM in test [7], 18.8 µM in test [8], 38 µM in [9] and 32.2 µM in [10]. In addition, the TGI in [1] is 41.7 µM; in test [2] it was over 100 µM; in [3] it was 37.6 µM; in [4], 36.3 µM; in [5], 37.2 µM; in test [6] it was 51.2 µM. Moreover, the TGI was 42 µM in test [7], 70.9 µM in test [8], over 100 µM in test [9] and over 100 µM in test [10].

For the molecule `N#Cc1c(NC(=O)c2ccc(F)cc2)sc2c1CCCC2`, the GI50 in test [1], in test [2], in test [3], in test [4], in test [5] and in test [6] was over 25 µM each time. The GI50 in test [7], in [8], in test [9] and in test [10] was over 25 µM in each case. The TGI in test [1], in test [2], in [3], in [4], in [5] and in [6] was over 25 µM each time. In addition, the TGI in [7], in [8], in test [9] and in [10] was over 25 µM throughout.

In the case of `COCCOC1=CC(=O)c2c(O)ccc(O)c2C1=O`, the TGI in [1] was 0.3 µM and 0.295 µM; in test [2], 3.06 µM and 3.61 µM; in test [3] it was 2.43 µM and 3.34 µM; in [4] it was 3.12 µM and 3.16 µM; in [5], 3.88 µM and 3.93 µM; in test [6], 3.55 µM and 3.54 µM. The TGI was 3.43 µM and 3.09 µM in [7]; 3.83 µM and 3.35 µM in test [8]; 0.324 µM and 0.323 µM in test [9]; 7.01 µM and 4.31 µM in [10]. In addition, the GI50 in test [2] was 1.84 µM; in test [3], 1.44 µM; in test [7], 1.69 µM; in [8] it was 1.63 µM; in test [10] it was 1.92 µM.

`Cc1ccc(C=C2C(Cl)=C(Cl)C(Cl)=C2Cl)cc1`: the GI50 in test [1] was 1.09 µM; in test [2] it was 0.721 µM; in test [3] it was 0.533 µM; in [4], 1.45 µM; in [5] it was 1.4 µM; in test [6], 0.664 µM. The GI50 is 1.16 µM in test [7], 0.757 µM in test [8], 0.42 µM in test [9] and 0.167 µM in test [10]. For the same molecule, the TGI in test [1] was 2.41 µM; in [2], 1.75 µM; in test [3], 2.5 µM; in test [4] it was 2.81 µM; in test [5] it was 4.28 µM; in test [6], 1.96 µM. Besides, the TGI in test [7] is 2.44 µM; in test [8] it was 2.18 µM; in [9], 1.6 µM; in [10], 0.49 µM.

In the case of `COC(=O)c1cc2oc(/C=C3/SC(=S)N(N)C3=O)cc2n1Cc1ccccc1`, the GI50 is 1.99 µM in [1]; 2.84 µM in test [2]; 4.46 µM in test [3]; 2.3 µM in [4]; 7.17 µM in test [5]; 3.97 µM in test [6]. The GI50 in [7] is 0.887 µM; in [8] it was 3.6 µM; in test [9], 6.65 µM; in test [10], over 100 µM. Further, the TGI in test [1] was 7.03 µM; in test [2] it was 8.53 µM; in test [3] it was 21.2 µM; in test [4], 6.3 µM; in [5], over 81.8 µM; in [6] it was 14 µM. Further, the TGI in test [7] is 11.3 µM; in test [8], 10.6 µM; in [9], over 41.5 µM; in test [10] it was over 100 µM.

Consider `C#Cc1cccc(Nc2ncnc3ccc(OCCCCNCCS(C)(=O)=O)cc23)c1`, for which the GI50 was 4.26 µM in test [1]; 7.54 µM in [2]; 16.7 µM in test [3]; 4.49 µM in test [4]; 0.161 µM in test [5]; 6.43 µM in test [6]. Moreover, the GI50 in [7] was 10.7 µM; in [8], 3.31 µM; in [9], 5.37 µM; in [10] it was 7.65 µM. Besides, the TGI in [1] is 8.63 µM; in test [2], over 25 µM; in [3] it was over 25 µM; in test [4] it was 8.72 µM; in test [5], over 25 µM; in test [6] it was over 23.3 µM. Also, the TGI in [7] was over 25 µM; in [8] it was over 15.4 µM; in test [9] it was 12.5 µM; in [10], over 25 µM.

As for `COc1c(/C=C/C=O)cc2c(c1OC)OCO2`, the TGI is 50.3 µM in test [1]; over 100 µM in test [2]; over 100 µM in [3]; over 100 µM in test [4]; over 100 µM in test [5]; 84.1 µM in test [6]. For the same molecule, the TGI in test [7], in test [8], in test [9] and in [10] was over 100 µM each time.

On to `CC(C)[C@@](O)(c1ccc2cc(OC(F)F)c(OC(F)F)cc2c1)c1cn[nH]n1`, for which the GI50 in [1] is 14.4 µM; in test [2], 17.2 µM; in test [3], 14.3 µM; in [4] it was 16.4 µM; in test [5] it was 11 µM; in test [6], 17.4 µM. The GI50 in test [7] is 15.1 µM; in [8] it was 11.6 µM; in test [9], 16.4 µM; in test [10], 19.2 µM. The TGI in test [1] was found to be 27.5 µM; in test [2], 34.1 µM; in test [3] it was 32.2 µM; in test [4], 32.3 µM; in [5], 29.9 µM; in [6], 34.7 µM. The TGI in test [7] came out at 40.4 µM; in test [8], 26.4 µM; in [9], 33.3 µM; in test [10], 55.3 µM.
